Measurements: ChEMBL document CHEMBL1126708, “Inhibitors of acyl-CoA:cholesterol acyltransferase (ACAT). 2. Modification of fatty acid anilide ACAT inhibitors: bioisosteric replacement of the amide bond” (J Med Chem, 1993)

How the values were obtained:
[1] = biological target: O-acyltransferase (Oryctolagus cuniculus, UniProt G1SFD9); experiment: Acyl coenzyme A:cholesterol acyltransferase (ACAT), inhibition by incubation with [1-14C]oleolyl-CoA and intestinal microsomes isolated from intestinal mucosa of cholesterol-fed rabbits
O-acyltransferase, sequence (G1SFD9 1-524): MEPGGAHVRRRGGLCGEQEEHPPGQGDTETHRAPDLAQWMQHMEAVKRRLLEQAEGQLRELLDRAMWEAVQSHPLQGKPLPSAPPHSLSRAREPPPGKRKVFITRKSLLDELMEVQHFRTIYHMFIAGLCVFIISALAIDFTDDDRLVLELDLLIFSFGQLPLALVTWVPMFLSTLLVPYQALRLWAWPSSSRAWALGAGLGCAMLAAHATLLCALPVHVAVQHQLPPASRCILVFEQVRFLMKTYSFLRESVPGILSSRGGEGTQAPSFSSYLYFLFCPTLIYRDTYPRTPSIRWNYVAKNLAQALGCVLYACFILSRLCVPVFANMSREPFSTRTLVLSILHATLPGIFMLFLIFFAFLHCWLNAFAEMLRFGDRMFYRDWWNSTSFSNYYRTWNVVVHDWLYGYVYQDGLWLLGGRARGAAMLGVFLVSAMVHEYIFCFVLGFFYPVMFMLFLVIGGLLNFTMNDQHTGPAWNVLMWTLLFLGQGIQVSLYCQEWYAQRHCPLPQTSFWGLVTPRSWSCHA

[2] = tested on: Rattus norvegicus; experiment: In vivo change in plasma total cholesterol in cholic acid (0.3%)-cholesterol (1.5%)-peanut oil(5.5%) fed rats dosed at 0.05% of diet.
[3] = Tested in vivo for plasma total cholesterol(TC) in cholic acid (0.3%)-cholesterol (1.5%)-peanut oil (5.5%) fed rats; type: functional
[4] = biological target: T1, Acyl-CoA:cholesterol acyltransferase (Oryctolagus cuniculus) (UniProt Q95214); experiment: Tested in vitro against intestinal Acyl coenzyme A:cholesterol acyltransferase by incubation with [1-14C]oleolyl-CoA in intestinal microsomes isolated from intestinal mucosa of cholesterol-fed rabbits; conditions: Microsome, concentration not given here
T1 sequence (whole entry): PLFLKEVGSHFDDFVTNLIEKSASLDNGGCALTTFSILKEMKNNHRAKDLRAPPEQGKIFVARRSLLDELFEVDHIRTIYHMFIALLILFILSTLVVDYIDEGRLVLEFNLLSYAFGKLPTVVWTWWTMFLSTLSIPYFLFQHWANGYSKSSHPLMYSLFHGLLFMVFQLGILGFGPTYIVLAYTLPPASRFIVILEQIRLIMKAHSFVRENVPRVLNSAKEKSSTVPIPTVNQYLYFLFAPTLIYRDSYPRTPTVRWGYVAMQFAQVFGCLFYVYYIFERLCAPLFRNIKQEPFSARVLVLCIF

IC50 [1] | SMILES | further results
210 nM | CCCCCCCCCCNC(=O)Nc1c(C)cccc1C(C)C | –
4700 nM | CCCCCCCC/C=C\CCCCCCCCNC(=O)Nc1ccc(F)cc1F | –
900 nM | CCCCCCCCCCCCCCCCCCNC(=O)Nc1c(OC)cc(OC)cc1OC | –
9400 nM | CCCCCCCC/C=C\CCCCCCCCNC(=O)c1c(OC)cc(OC)cc1OC | –
87 nM | CCCCCCCCCCNC(=O)Nc1c(CC)cccc1C(C)C | Change [2]: -61%
5400 nM | CCCCCCCC/C=C\CCCCCCCCNC(=S)Nc1c(C)cccc1C | –
43 nM | CCCCCCCC/C=C\CCCCCCCCNC(=O)Nc1c(CC)cccc1CC | Change [2]: -26%
110 nM | CCCCCCCCCCC1(NC(=O)Nc2c(CC)cccc2CC)CCCC1 | –
> 10000 nM | CCCCCCCCCCCCCCCCCCOC(=O)Nc1c(C)cccc1C | –
3300 nM | CCCCCCCC/C=C\CCCCCCCCNC(=O)Nc1ccccc1OC | –
37 nM | CCCCCCCC/C=C\CCCCCCCCNC(=O)Nc1c(CC)cccc1C(C)C | Change [2]: -41%
1200 nM | CCCCCCCC/C=C\CCCCCCCCNC(=O)Nc1c(Cl)cc(Cl)cc1Cl | –
> 2500 nM | CCCCCCCCCCCCCCNC(=O)Nc1cccc(C(F)(F)F)c1 | –
4500 nM | CCCCCCCC/C=C\CCCCCCCCNC(=O)Nc1cc(C)ccc1C | –
520 nM | CCCCCCCCCCCCCCNC(=O)Nc1c(Br)cc(CC)cc1Br | –
> 5000 nM | CCCCCCCCCCCCCCCCCCNC(=O)NCc1c(OC)cc(OC)cc1OC | –
610 nM | CCCCCCCCCCCCCCCCCCNC(=O)Nc1c(C)cccc1C | –
> 10000 nM | CCCCCCCCCCCCCCCCCCSC(=O)Nc1c(C)cccc1C | –

IC50 [1] | SMILES | further results
690 nM | CCCCCCCCCCCCCCCCS(=O)(=O)Nc1c(OC)cc(OC)cc1OC | –
73 nM | CCCCCCCCCCCCCCCCC(C)(C)CNC(=O)Nc1c(C(C)C)cccc1C(C)C | –
860 nM | CCCCCCCC/C=C\CCCCCCCCOC(=O)Nc1c(OC)cc(OC)cc1OC | –
900 nM | CCCCCCCC/C=C\CCCCCCC/C(S)=N/c1c(OC)cc(OC)cc1OC | Change [2]: -22%
> 10000 nM | CCCCCCCCCCCCCCCCCCOc1c(C)cccc1C | –
> 5000 nM | CCCCCCCC/C=C\CCCCCCCCNC(=O)Nc1ccc(C)cc1C | –
100 nM | CCCCCCCCCCNC(=O)Nc1c(CC)cccc1CC | –
> 10000 nM | CCCCCCCC/C=C\CCCCCCCC(=O)Oc1c(C)cccc1C | –
7100 nM | CCCCCCCCCCCCCCCCCCOC(=O)Nc1c(OC)cc(OC)cc1OC | –
250 nM | CCCCCCCCCCCCCCNC(=O)Nc1c(F)cc(F)cc1F | –
> 10000 nM | CCCCCCCCCCCCCCCCCCNC(=O)c1c(C)cccc1C | –
> 10000 nM | CCCCCCCCCCCCCCCCCC(=O)Oc1c(C)cccc1C | –
28 nM | CCCCCCCC/C=C\CCCCCCCCNC(=O)Nc1c(C(C)C)cccc1C(C)C | Change [2]: -45%
> 100000 nM | CCCCCCCC/C=C\CCCCCCCCNCc1c(OC)cc(OC)cc1OC | –
2460 nM | CCCCCCCCCCCCCCCCCCNC(=O)Sc1c(C)cccc1C | –
> 5000 nM | CCCCCCCC/C=C\CCCCCCCCNC(=O)Nc1ccccc1 | –
> 10000 nM | CCCCCCCCCCCCCCCCCC[S+]([O-])c1c(C)cccc1C (configuration not stated) | –

Second part, the compound before the results:

SMILES | IC50 [1] | further results
CCCCCCCC/C=C\CCCCCCCCNC(=O)Nc1c(C)cccc1Cl | 180 nM | Change [2]: -42%
CNC(=O)Nc1c(C(C)C)cccc1C(C)C | > 5000 nM | –
CCCCCCCC/C=C\CCCCCCCCNC(=O)Nc1c(C)cccc1C | 160 nM | Change [2]: -55%
CCCCCCCCCCCCCCCCCCNC(=O)Oc1c(C)cccc1C | 3100 nM | –
CCCCCCCCCCC(C)(C)NC(=O)Nc1c(C(C)C)cccc1C(C)C | 45 nM | Change [2]: -60%
CCCCCCCC/C=C\CCCCCCCCNC(=O)Nc1ccc(OC)cc1OC | 5400 nM | –
CCCCCCCCCCCCCCNC(=O)Nc1ccc(F)cc1F | 340 nM | –
CCCCCCCCCCC(C)(C)NC(=O)Nc1c(CC)cccc1CC | 52 nM | Change [2]: -60%
CCCCCCCC/C=C\CCCCCCCCNC(=O)Nc1c(OC)cc(OC)cc1OC | 320 nM | Change [3]: -25%
CCCCCCCCCCCCCCCCCCSc1c(C)cccc1C | > 10000 nM | –
CCCCCCCC/C=C\CCCCCCCC(=O)Nc1c(C)cccc1C | – | Change [2]: -38%
CCCCCCCCCCCCCCNC(=O)Nc1c(CC)cccc1C(C)C | 18 nM | Change [2]: -41%
CCCCCCCCCCNC(=O)Nc1c(C)cccc1C(C)(C)C | 200 nM | –
CCCCCCCCCCC1(NC(=O)Nc2c(C(C)C)cccc2C(C)C)CCCC1 | 46 nM | Change [2]: -53%
CCCCCCCC/C=C\CCCCCCCCOC(=O)c1c(OC)cc(OC)cc1OC | > 5000 nM | –
CCCCCCCCCCNC(=O)Nc1c(C(C)C)cccc1C(C)C | 56 nM | Change [2]: -64%
CCCCCCCC/C=C\CCCCCCCC(=O)c1c(OC)cc(OC)cc1OC | > 50000 nM | –
CCCCCCNC(=O)Nc1c(C(C)C)cccc1C(C)C | 99 nM | –
CCCCCCCC/C=C\CCCCCCCCNC(=O)Nc1ccccc1CC | 980 nM | Change [2]: -28%

SMILES | IC50 [1] | further results
CCCCCCCCCCCCCCCCCCNC(=O)Nc1c(C)cccc1Cl | 1100 nM | –
CCCCCCCCCCCCCCCCCCSC(=O)Nc1c(OC)cc(OC)cc1OC | 5700 nM | –
CCCCCCCCCCCCCCNC(=O)Nc1c(C)cccc1Cl | 70 nM | Change [2]: 0%
CCCCCCCC/C=C\CCCCCCCC(O)c1c(OC)cc(OC)cc1OC (configuration not stated) | – | inhibition [4]: 6%
CCCCCCCCCCC(CC)(CC)CNC(=O)Nc1c(C(C)C)cccc1C(C)C | 50 nM | –
CCCCCCCC/C=C/CCCCCCCC(=O)Nc1c(OC)cc(OC)cc1OC | 44 nM | Change [2]: -38%
CCCCCCCC/C=C\CCCCCCCC/N=C(\S)Nc1c(C)cccc1C | – | Change [2]: -17%
CCCCCCCCCC(C)(C)CNC(=O)Nc1c(C(C)C)cccc1C(C)C | 46 nM | –
CCCCCCCC/C=C\CCCCCCCCNC(=O)Nc1c(C)cc(C)cc1C | 2900 nM | –
CCCCCCCC/C=C\CCCCCCCC(=O)NCc1c(OC)cc(OC)cc1OC | 6800 nM | –
CCCCCCCCCCC(C)(C)CNC(=O)Nc1c(C(C)C)cccc1C(C)C | 47 nM | –
CCCCCCCCCCCCCCNC(=O)Nc1c(CC)cccc1CC | 21 nM | Change [2]: -38%
CCCCNC(=O)Nc1c(C(C)C)cccc1C(C)C | 630 nM | –
CCCCCCCC/C=C\CCCCCCCCNC(=O)Nc1c(Cl)cccc1Cl | 400 nM | Change [2]: -47%
CCCCCCCCCCCCCCCCCCNC(=O)Nc1c(C(C)C)cccc1C(C)C | 48 nM | Change [2]: -7%
CCCCCCCC/C=C\CCCCCCCCNC(=O)c1c(C)cccc1C | 9800 nM | –
CCCCCCCC/C=C\CCCCCCCCNC(=O)Nc1ccc(Oc2ccccc2)cc1 | > 5000 nM | –
CCCCCCCCCCC(C)(C)NC(=O)Nc1ccccc1CC | 500 nM | –
CCCCCCCCCCCCCCCCCC(=O)Nc1c(OC)cc(OC)cc1OC | – | Change [2]: -11%
